For 36 compounds, IC50 results are on record in patent US7582645B2, “Pyrimidine derivatives for treatment of hyperproliferative disorders” (Bayer Pharmaceuticals Corporation, priority 2003, dated 2009).

The structures appear in SMILES notation. Counter-ions that a name gives are not always drawn. A value given as a limit tells only on which side of the number the result lay.

By IC50 is commonly meant the concentration at which inhibition is half-maximal. Low readings indicate inhibition by little substance, high ones a need for much substance.

The first assay concerns HCT116 cells. Nature of the assay: HCT116 cytotoxic activity assay (Alamar Blue, 72 h). The format is cell-based. Conditions: Homo sapiens, HCT-116, 72 h compound exposure, greater than 500 nM but less than or equal to 2 μM. How it is done: Representative compounds of this invention were tested for cytotoxicity using the above-described assay procedure with the following results: […]
As to `COc1ccc(-c2cc(Nc3ccc(Oc4ccnc(C(F)(F)F)c4)cc3)nc(N)n2)cc1OC` [Example 189, 6-(3,4-dimethoxyphenyl)-N4*-(4-{[2-(trifluoromethyl)pyridin-4-yl]oxy}phenyl)pyrimidine-2,4-diamine], the IC50 was in the range of 500 to 2000 nM.
On the same count and under the same terms, under `Cc1cc(Oc2ccc(Nc3cc(-c4cccc(OC(C)C)c4)nc(N)n3)cc2)ccn1` [Example 324, 6-(3-isopropoxyphenyl)-N4*-{4-[(2-methylpyridin-4-yl)oxy]phenyl} pyrimidine-2,4-diamine] stands 500 to 2000 nM; under `Nc1nc(Nc2ccc(Oc3ccnc(N(N)Cc4ccccc4)c3)cc2)cc(-c2ccccc2)n1` [Example 131, N4*-(4-{[2-(1-benzylhydrazino)pyridin-4-yl]oxy}phenyl)-6-phenylpyrimidine-2,4-diamine], 500 to 2000 nM.
The same measure, in the same setting: the figure for `N#Cc1ccc(Oc2ccc(Nc3cc(-c4ccccc4)nc(N)n3)cc2)cc1` [Example 68, 4-{4-[(2-amino-6-phenylpyrimidin-4-yl)amino]phenoxy} benzonitrile] is 500 to 2000 nM.
Same read-out and setting: the figure for `CN(C)c1ccc(-c2cc(Nc3ccc(Oc4ccnc(C#N)c4)cc3)nc(N)n2)cc1` [Example 232, 4-[4-({2-amino-6-[4-(dimethylamino)phenyl]pyrimidin-4-yl}amino)phenoxy]pyridine-2-carbonitrile] is 500 to 2000 nM; for `CNC(=O)c1cc(Oc2ccc(Nc3cc(-c4ccoc4)nc(N)n3)cc2)ccn1` [Example 10, 4-(4-{[2-amino-6-(3-furyl)pyrimidin-4-yl]amino}-phenoxy)-N-methylpyridine-2-carboxamide] it is 500 to 2000 nM; for `Nc1nc(Nc2ccc(Oc3ccnc(C(=O)NC4CN5CCC4CC5)c3)cc2)cc(-c2ccccc2)n1` (stereo not drawn) [Example 79, 4-{4-[(2-amino-6-phenylpyrimidin-4-yl)amino]phenoxy}-N-1-azabicyclo[2.2.2]oct-3-ylpyridine-2-carboxamide trifluoroacetate] it is 500 to 2000 nM.
Compound `COCCN(CCOC)c1ccnc(Oc2ccc(Nc3cc(-c4ccccc4)nc(N)n3)cc2)c1` [Example 109, N4*-[4-({4-[bis(2-methoxyethyl)amino]pyridin-2-yl}oxy)phenyl]-6-phenylpyrimidine-2,4-diamine] had an IC50 of 500 to 2000 nM.
On the same count and under the same terms, the figure for `Nc1nc(Nc2ccc(Oc3ccnc(C(F)(F)F)c3)cc2)cc(-c2ccccc2N)n1` [Example 194, 6-(2-aminophenyl)-N4*-(4-{[2-(trifluoromethyl)pyridin-4-yl]oxy}phenyl)pyrimidine-2,4-diamine] is 500 to 2000 nM; for `CN1CCN(c2cc(Oc3cccc(Nc4cc(-c5ccccc5)nc(N)n4)c3)ccn2)CC1` [Example 130, N4*-(3-{[2-(4-methylpiperazin-1-yl)pyridin-4-yl]oxy}phenyl)-6-phenylpyrimidine-2,4-diamine] it is 500 to 2000 nM; for `NC(=O)c1cc(Oc2cccc(Nc3cc(-c4ccccc4F)nc(N)n3)c2)ccn1` [Example 286, 4-(3-{[2-amino-6-(2-fluorophenyl)pyrimidin-4-yl]amino}phenoxy) pyridine-2-carboxamide] it is 500 to 2000 nM.
The same measure, in the same setting: the figure for `NC(=O)c1cc(Oc2ccc(Nc3cc(-c4cccc(F)c4)nc(N)n3)cc2)ccn1` [Example 256, 4-(4-{[2-amino-6-(3-fluorophenyl)pyrimidin-4-yl]amino}phenoxy) pyridine-2-carboxamide] is 500 to 2000 nM; for `N#Cc1cc(Oc2ccc(Nc3cc(-c4cccc(CO)c4)nc(N)n3)cc2)ccn1` [Example 248, 4-[4-({2-amino-6-[3-(hydroxymethyl)phenyl]pyrimidin-4-yl}amino)phenoxy]pyridine-2-carbonitrile] it is 500 to 2000 nM.
Same read-out and setting: the figure for `CN1CCN(C(=O)c2cc(Oc3ccc(Nc4cc(-c5ccccc5)nc(N)n4)cc3)ccn2)CC1` [Example 26, N4*-[4-({2-[(4-methylpiperazin-1-yl)carbonyl]pyridin-4-yl}oxy)phenyl]-6-phenylpyrimidine-2,4-diamine trifluoroacetate] is 500 to 2000 nM.
`Nc1nc(Nc2ccc(Oc3ccnc(C(F)(F)F)c3)cc2)cc(-c2ccc(NC(=O)CCC(=O)O)cc2)n1` [Example 148, 4-[(4-{2-amino-6-[(4-{[2-(trifluoromethyl)pyridin-4-yl]oxy}phenyl)amino]pyrimidin-4-yl}phenyl)amino]-4-oxobutanoic acid] returned an IC50 of 500 to 2000 nM.
On to `N#CCc1ccc(-c2cc(Nc3ccc(Oc4ccnc(C#N)c4)cc3)nc(N)n2)cc1` [Example 235, 4-[4-({2-amino-6-(4-(cyanomethyl)phenyl]pyrimidin-4-yl}amino)phenoxy]pyridine-2-carbonitrile], for which the 50% inhibitory concentration (IC50) was in the range of 500 to 2000 nM.

Staying with this assay, now noted: Homo sapiens, HCT-116, 72 h compound exposure, greater than 2 μM.
The compound `NC(=O)c1cc(Oc2ccc(Nc3cc(-c4cccc(OC(F)(F)F)c4)nc(N)n3)cc2)ccn1` [Example 277, 4-[4-({2-amino-6-[3-(trifluoromethoxy)phenyl]pyrimidin-4-yl}amino)phenoxy]pyridine-2-carboxamide] came in with an IC50 greater than 2000 nM.
The compound `N#Cc1cc(Oc2ccc(Nc3cc(-c4ccc(-c5ccccc5)c(F)c4)nc(N)n3)cc2)ccn1` [Example 221, 4-(4-{[2-amino-6-(2-fluorobiphenyl-4-yl)pyrimidin-4-yl]amino}phenoxy) pyridine-2-carbonitrile] registered an IC50 greater than 2000 nM.
Same read-out and setting: the figure for `NC(=O)c1cc(Oc2cccc(Nc3cc(-c4ccc(-c5ccccc5)cc4)nc(N)n3)c2)ccn1` [Example 280, 4-{3-[(2-amino-6-biphenyl-4-ylpyrimidin-4-yl)amino]phenoxy} pyridine-2-carboxamide] is greater than 2000 nM.
`COC[C@@H]1CCCN1c1cc(Oc2cccc(Nc3cc(-c4ccccc4)nc(N)n3)c2)ccn1` [Example 122, N4*-[3-({2-[2-(methoxymethyl)pyrrolidin-1-yl]pyridin-4-yl}oxy)phenyl]-6-phenylpyrimidine-2,4-diamine] displayed an IC50 greater than 2000 nM.
On the same count and under the same terms, the figure for `Nc1nc(Nc2ccc(Oc3cc(N4CCCCC4)ccn3)cc2)cc(-c2ccccc2)n1` [Example 106, 6-phenyl-N4*-{4-[(4-piperidin-1-ylpyridin-2-yl)oxy]phenyl}pyrimidine-2,4-diamine] is greater than 2000 nM.

The assay is the same for the next values; noted with them: Homo sapiens, HCT-116, 72 h compound exposure, less than or equal to 500 nM.
Regarding `Nc1cccc(-c2cc(Nc3ccc(Oc4ccnc(Cl)c4)cc3)nc(N)n2)c1` [Example 118, 6-(3-aminophenyl)-N4*-{4-[(2-chloropyridin-4-yl)oxy]phenyl}pyrimidine-2,4-diamine], the IC50 is no more than 500 nM.
`Nc1nc(Nc2ccc(Oc3ccnc(C(F)(F)F)c3)cc2)cc(-c2cc(F)cc(F)c2)n1` [Example 218, 6-(3,5-difluorophenyl)-N4*-(4-{[2-(trifluoromethyl)pyridin-4-yl]oxy}phenyl)pyrimidine-2,4-diamine] displayed a half-inhibitory concentration (IC50) of no more than 500 nM.
For the compound `Nc1nc(Nc2ccc(Oc3ccnc(N(CCO)CCO)c3)cc2)cc(-c2ccccc2)n1` [Example 129, 2,2′-[(4-{4-[(2-amino-6-phenylpyrimidin-4-yl)amino]phenoxy}pyridin-2-yl)imino]diethanol], the IC50 is no more than 500 nM.
On the same count and under the same terms, under `Nc1nc(Nc2ccc(Oc3ccnc(C(F)(F)F)c3)cc2)cc(-c2ccoc2)n1` [Example 195, 6-(3-furyl)-N4*-(4-{[2-(trifluoromethyl)pyridin-4-yl]oxy}phenyl)pyrimidine-2,4-diamine] stands no more than 500 nM; under `CCc1cc(Oc2ccc(Nc3cc(-c4ccccc4)nc(N)n3)cc2)ccn1` [Example 1, N^4-{4-[(2-ethylpyridin-4-yl)oxy]phenyl}-6-phenyl-pyrimidine-2,4-diamine], no more than 500 nM; under `Nc1nc(Nc2ccc(Oc3ccnc(N4CCCCC4)c3)cc2)cc(-c2ccccc2)n1` [Example 139, 6-phenyl-N4*-{4-[(2-piperidin-1-ylpyridin-4-yl)oxy]phenyl}pyrimidine-2,4-diamine], no more than 500 nM.
`Nc1nc(Nc2ccc(Oc3ccnc(Cl)c3)cc2)cc(-c2ccc(OS(N)(=O)=O)cc2)n1` [Example 332, 4-[2-amino-6-({4-[(2-chloropyridin-4-yl)oxy]phenyl}amino)pyrimidin-4-yl]phenyl sulfamate] yielded an IC50 of no more than 500 nM.
On the same count and under the same terms, the figure for `CNC(=O)c1cc(Oc2cccc(Nc3cc(-c4ccccc4)nc(N)n3)c2)ccn1` [Example 4, 4-{3-[(2-amino-6-phenylpyrimidin-4-yl)amino]phenoxy}-N-methylpyridine-2-carboxamide] is no more than 500 nM; for `CS(=O)(=O)NCc1cc(Oc2ccc(Nc3cc(-c4ccccc4)nc(N)n3)cc2)ccn1` [Example 40, N-[(4-{4-[(2-amino-6-phenylpyrimidin-4-yl)amino]-phenoxy}pyridin-2-yl)methyl]methanesulfonamide] it is no more than 500 nM.
Same read-out and setting: the figure for `Nc1nc(Nc2ccc(Oc3ccnc(C(F)(F)F)c3)cc2)cc(-c2cccnc2)n1` [Example 213, 6-pyridin-3-yl-N4*-(4-{[2-(trifluoromethyl)pyridin-4-yl]oxy}phenyl)pyrimidine-2,4-diamine] is no more than 500 nM; for `N#Cc1cc(Oc2ccc(Nc3cc(-c4ccsc4)nc(N)n3)cc2)ccn1` [Example 251, 4-(4-{[2-amino-6-(3-thienyl)pyrimidin-4-yl]amino}phenoxy) pyridine-2-carbonitrile] it is no more than 500 nM.
Same read-out and setting: the figure for `Nc1nc(Nc2ccc(Oc3ccnc(Cl)c3)cc2)cc(-c2ccc(F)cc2)n1` [Example 114, N4*-{4-[(2-chloropyridin-4-yl)oxy]phenyl}-6-(4-fluorophenyl)pyrimidine-2,4-diamine] is no more than 500 nM; for `COCCN(C)c1cc(Oc2ccc(Nc3cc(-c4ccccc4)nc(N)n3)cc2)ccn1` [Example 137, N4*-[4-({2-[(2-methoxyethyl)(methyl)amino]pyridin-4-yl}oxy)phenyl]-6-phenylpyrimidine-2,4-diamine] it is no more than 500 nM; for `COC(=O)c1cc(Oc2ccc(Nc3cc(-c4ccccc4)nc(N)n3)cc2)ccn1` [Example 19, methyl 4-{4-[(2-amino-6-phenylpyrimidin-4-yl)amino]phenoxy}pyridine-2-carboxylate] it is no more than 500 nM.
Take `Nc1nc(Nc2ccc(Oc3ccc([N+](=O)[O-])cc3)cc2)cc(-c2ccccc2)n1` [Example 11, N^4-[4-(4-nitrophenoxy)phenyl]-6-phenylpyrimidine-2,4 diamine]: the IC50 is no more than 500 nM.
